Reference: patent US20220213092A1, “BICYCLIC PYRAZOLE BRUTON'S TYROSINE KINASE INHIBITORS” (AbbVie Inc., priority 2020, published 2022)
Like-named read-outs stand apart in the source and are kept apart here.

Tests used:
Assay type in all cases: biochemical
[1] = molecular target: MAP2K2 (Homo sapiens, UniProt P36507); test: Other kinase MSA: MAP2K2; conditions: 30 μM ATP, ERKtide substrate; pre-activation of ERK 30 min, detection after 60 minutes; read-out: IC50, Enzyme MAP2K2
Description: (§1) Kinase activity, unless otherwise indicated, was measured in vitro using an electrophoretic mobility shift assay (MSA). The phosphorylation of a peptide substrate by BTK and other kinases was measured. The kinase reactions were assembled in a total volume of 25 μL per well in 384 well plates. The following was added to each well: compound buffer (or control); enzyme buffer; and substrate buffer, as further described below. […]
(§2) Enzyme and compound/inhibitor were optionally pre-incubated. […] The kinase activity for the kinases in Table 3 were measured at 3 hours incubation time, except that in the case of MAP2K1 and MAP2K2 assay, pre-activation of ERK was done for 30 min with 6 μM of ATP, and then the detection of activated ERK in the presence of compounds was done after 60 minutes of incubation.
(§3) The terminated reactions were analyzed using a 12 channel LABCHIP® 3000 microfluidic detection instrument (available from Caliper Life Sciences, Waltham, Mass.). […] As substrate and product peptides were separated, two peaks of fluorescence were observed. Change in the relative fluorescence intensity of the substrate and product peaks was the parameter measured, reflecting enzyme activity. […] Capillary electrophoregrams (RDA acquisition files) were analyzed using HTS Well Analyzer software (available from Caliper Life Sciences, Waltham, Mass.). […]

[2] = molecular target: T1, TEC (Homo sapiens, UniProt P42680); test: Other kinase MSA: TEC
T1 sequence (P42680 1-631): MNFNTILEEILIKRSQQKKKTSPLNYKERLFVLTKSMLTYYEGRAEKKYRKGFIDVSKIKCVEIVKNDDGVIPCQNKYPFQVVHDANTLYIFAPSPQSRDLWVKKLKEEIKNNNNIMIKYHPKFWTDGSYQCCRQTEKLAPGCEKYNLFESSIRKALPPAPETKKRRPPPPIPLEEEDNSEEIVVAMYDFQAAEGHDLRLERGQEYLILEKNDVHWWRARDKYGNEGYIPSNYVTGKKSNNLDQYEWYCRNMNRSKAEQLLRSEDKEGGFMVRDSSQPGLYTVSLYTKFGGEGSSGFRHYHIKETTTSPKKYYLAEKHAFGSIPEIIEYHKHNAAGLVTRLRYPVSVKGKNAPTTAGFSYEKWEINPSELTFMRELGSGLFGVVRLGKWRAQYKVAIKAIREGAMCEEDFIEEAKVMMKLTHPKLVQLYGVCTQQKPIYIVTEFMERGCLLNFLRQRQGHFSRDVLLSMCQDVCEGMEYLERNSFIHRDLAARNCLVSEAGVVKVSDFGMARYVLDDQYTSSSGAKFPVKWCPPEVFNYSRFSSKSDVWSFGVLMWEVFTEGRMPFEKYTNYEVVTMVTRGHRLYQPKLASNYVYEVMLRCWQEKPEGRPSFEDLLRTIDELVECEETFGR
Description: as §1, §2, §3

[3] = molecular target: T2, TXK (Homo sapiens, UniProt P42681); test: Other kinase MSA: TXK
T2 sequence (P42681 1-527): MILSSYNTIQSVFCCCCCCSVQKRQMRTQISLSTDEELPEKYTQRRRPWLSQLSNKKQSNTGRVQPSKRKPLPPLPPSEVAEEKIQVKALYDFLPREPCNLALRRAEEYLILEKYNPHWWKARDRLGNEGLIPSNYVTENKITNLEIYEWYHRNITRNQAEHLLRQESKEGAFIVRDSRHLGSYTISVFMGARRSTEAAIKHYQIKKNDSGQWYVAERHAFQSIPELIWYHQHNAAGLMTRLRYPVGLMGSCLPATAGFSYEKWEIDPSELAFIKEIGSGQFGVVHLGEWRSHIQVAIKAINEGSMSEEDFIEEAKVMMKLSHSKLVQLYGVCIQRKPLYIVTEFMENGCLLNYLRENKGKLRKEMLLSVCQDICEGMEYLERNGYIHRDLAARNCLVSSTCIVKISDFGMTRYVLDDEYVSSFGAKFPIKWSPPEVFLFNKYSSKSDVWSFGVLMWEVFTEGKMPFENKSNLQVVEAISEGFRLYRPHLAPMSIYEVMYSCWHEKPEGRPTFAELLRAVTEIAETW
Description: as §1, §2, §3

Sequence of MAP2K2 (P36507 whole entry, species assumed): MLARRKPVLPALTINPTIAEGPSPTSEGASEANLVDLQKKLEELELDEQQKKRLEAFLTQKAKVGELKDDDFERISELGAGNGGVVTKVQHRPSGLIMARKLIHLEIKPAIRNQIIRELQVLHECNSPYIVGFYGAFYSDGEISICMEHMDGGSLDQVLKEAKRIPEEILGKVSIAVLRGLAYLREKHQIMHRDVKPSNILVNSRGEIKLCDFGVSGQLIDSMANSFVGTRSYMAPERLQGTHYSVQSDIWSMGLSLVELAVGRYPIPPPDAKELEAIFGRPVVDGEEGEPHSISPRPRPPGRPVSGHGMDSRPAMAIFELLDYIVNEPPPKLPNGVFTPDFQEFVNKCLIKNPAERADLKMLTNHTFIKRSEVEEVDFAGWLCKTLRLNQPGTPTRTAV

Structure (SMILES) | IC50 [1] [nM] | IC50 ([2]; 50 μM ATP, SRCtide substrate, 3 hours, read-out: IC50, Enzyme TEC) [nM] | IC50 ([3]; 100 μM ATP, SRCtide substrate, 3 hours, read-out: IC50, Enzyme TXK) [nM] | IC50 [2] [nM] | IC50 [3] [nM]
C=CC(=O)N1CCC([C@@H]2CCNc3c(C(N)=O)c(-c4ccc(Oc5ccccc5)cc4)nn32)CC1 [Compound A, reference compound] | 75 | 0.8 | 1.9 |  | 
C=CC(=O)N1CCN([C@@H]2CCNc3c2nn(-c2ccc(Oc4ccccc4)cc2)c3C(N)=O)CC1 [Example 6, (7R)-2-(4-phenoxyphenyl)-7-[4-(prop-2-enoyl)piperazin-1-yl]-4,5,6,7-tetrahydro-2H-pyrazolo[4,3-b]pyridine-3-carboxamide] | 7800 |  |  | 14.7 | 222
